According to patent US10294202B2, “Pyrrolidinones as herbicides” (FMC Corporation, priority 2013, dated 2019):

Tests used:
sedge, umbrella = assay: Test B flooded paddy test; format: in vivo, Cyperus difformis; settings: 500 g ai/ha, Flood; scale of 0 to 100 where 0 is no effect and 100 is complete control
Method in brief: (§1)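 Scoring: visual, compared with untreated controls, 0 = no effect through 100 = complete control, taken 13 to 15 days after treatment in the greenhouse. Compounds had been added to paddy water over soil flooded 3 cm deep at the plants' 2-leaf stage.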

barnyardgrass = assay: Test B flooded paddy test; format: in vivo, Echinochloa crus-galli; settings: 500 g ai/ha, Flood; scale of 0 to 100 where 0 is no effect and 100 is complete control
Method in brief: as §1

wheat = assay: Test A pre-/postemergence herbicide test; format: in vivo, Triticum aestivum; settings: Postemergence
Method in brief: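 Seeds sown in loam soil/sand blend received a preemergence directed soil spray of test chemical in non-phytotoxic solvent with surfactant; postemergence plants (2–10 cm, one- to two-leaf stage) were sprayed with the same formulation. After about 10 days in greenhouse, injury was rated visually versus untreated controls, 0 (no effect) to 100 (complete control).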

blackgrass = assay: Test C pre-/postemergence herbicide test; format: in vivo, Alopecurus myosuroides
Method in brief: (§2)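 Visual rating, 0 (no effect) to 100 (complete control), versus untreated controls after 13 to 15 days in the greenhouse. Pre: seeds in loam/sand, sprayed at planting. Post: 1- to 4-leaf plants (2 to 18 cm) in peat-based mix. Compounds in non-phytotoxic solvent plus surfactant.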

velvetleaf = assay: Test C pre-/postemergence herbicide test; format: in vivo, Abutilon theophrasti
Method in brief: as §2

ragweed = assay: Test C pre-/postemergence herbicide test; format: in vivo, Ambrosia elatior
Method in brief: as §2

pigweed = assay: Test C pre-/postemergence herbicide test; format: in vivo, Amaranthus retroflexus
Method in brief: as §2

rice = assay: Test B flooded paddy test; format: in vivo, Oryza sativa; settings: 500 g ai/ha, Flood; scale of 0 to 100 where 0 is no effect and 100 is complete control
Method in brief: as §1

johnsongrass = assay: Test C pre-/postemergence herbicide test; format: in vivo, Sorghum halepense
Method in brief: as §2

oilseed rape = assay: Test C pre-/postemergence herbicide test; format: in vivo, Brassica napus
Method in brief: as §2

crabgrass, large = assay: Test C pre-/postemergence herbicide test; format: in vivo, Digitaria sanguinalis
Method in brief: as §2

wheat (winter wheat) = assay: Test C pre-/postemergence herbicide test; format: in vivo, Triticum aestivum; settings: for Plant response rating, Wheat: Postemergence; for Wheat plant response rating / Plant response rating (scale of 0 to 100), Wheat: Preemergence
Method in brief: as §2

[1] = 125 g ai/ha, visual rating on 0 to 100 scale (0 no effect, 100 complete control), approx. 10 days
[2] = 500 g ai/ha, 0 to 100 scale (0 no effect, 100 complete control)
[3] = Postemergence, 31 g ai/ha, scale 0 to 100 (0 no effect, 100 complete control)
[4] = Postemergence, 62 g ai/ha, scale 0 (no effect) to 100 (complete control)
[5] = Postemergence, 125 g ai/ha, scale 0 to 100 (0 no effect, 100 complete control)
[6] = Postemergence, 250 g ai/ha, scale 0 to 100 (0 no effect, 100 complete control)
[7] = Preemergence, 31 g ai/ha, scale 0 to 100, 0 is no effect and 100 is complete control
[8] = Preemergence, 62 g ai/ha, scale 0 to 100 (0 no effect, 100 complete control)
[9] = Preemergence, 125 g ai/ha, scale 0 to 100 (0 no effect, 100 complete control)
[10] = 31 g ai/ha, scale 0 to 100 (0 no effect, 100 complete control)
[11] = 62 g ai/ha, scale 0 (no effect) to 100 (complete control)
[12] = 125 g ai/ha, scale 0 to 100 (0 no effect, 100 complete control)
[13] = 250 g ai/ha, scale 0 to 100 (0 no effect, 100 complete control)
[14] = 31 g ai/ha, scale 0 to 100, 0 is no effect and 100 is complete control
[15] = 62 g ai/ha, scale 0 to 100 (0 no effect, 100 complete control)

Compound: O=C1NCC(c2cccc(Cl)c2)C1C(=O)Nc1cccc(F)c1F (racemic) [Compound 275]
- Plant response rating, Sedge, Umbrella (sedge, umbrella): 30
- Plant response rating, Barnyardgrass (barnyardgrass): 85
- Plant response rating, Wheat (wheat; [1]): 40
- Plant response rating, Wheat (wheat; [2]): 70
- Plant response rating, Blackgrass (blackgrass; [3]): 0
- Plant response rating, Blackgrass (blackgrass; [4]): 0
- Plant response rating, Blackgrass (blackgrass; [5]): 5
- Plant response rating, Blackgrass (blackgrass; [6]): 40
- Blackgrass plant response rating (blackgrass; [7]): 45
- Blackgrass plant response rating (blackgrass; [8]): 60
- Plant response rating, Blackgrass (blackgrass; [9]): 70
- Plant response rating (scale of 0 to 100), Blackgrass (blackgrass; Preemergence, 250 g ai/ha): 80
- Plant response rating, Velvetleaf (velvetleaf; [3]): 5
- Plant response rating, Velvetleaf (velvetleaf; [4]): 10
- Plant response rating, Velvetleaf (velvetleaf; [5]): 10
- Plant response rating, Velvetleaf (velvetleaf; [6]): 50
- Velvetleaf plant response rating (velvetleaf; [7]): 0
- Velvetleaf plant response rating (velvetleaf; [8]): 0
- Plant response rating, Velvetleaf (velvetleaf; [9]): 25
- Plant response rating (scale of 0 to 100), Velvetleaf (velvetleaf; Preemergence, 250 g ai/ha): 30
- Plant response rating, Ragweed (ragweed; [3]): 20
- Plant response rating, Ragweed (ragweed; [4]): 65
- Plant response rating, Ragweed (ragweed; [5]): 70
- Plant response rating, Ragweed (ragweed; [6]): 70
- Ragweed plant response rating (ragweed; [7]): 5
- Ragweed plant response rating (ragweed; [8]): 5
- Plant response rating, Ragweed (ragweed; [9]): 60
- Plant response rating (scale of 0 to 100), Ragweed (ragweed; Preemergence, 250 g ai/ha): 85
- Plant response rating, Pigweed (pigweed; [3]): 5
- Plant response rating, Pigweed (pigweed; [4]): 5
- Plant response rating, Pigweed (pigweed; [5]): 30
- Plant response rating, Pigweed (pigweed; [6]): 35
- Pigweed plant response rating (pigweed; [7]): 0
- Pigweed plant response rating (pigweed; [8]): 0
- Plant response rating, Pigweed (pigweed; [9]): 10
- Plant response rating (scale of 0 to 100), Pigweed (pigweed; Preemergence, 250 g ai/ha): 40
- Plant response rating, Rice (rice): 0
- Plant response rating, Johnsongrass (johnsongrass; [3]): 0
- Plant response rating, Johnsongrass (johnsongrass; [4]): 0
- Plant response rating, Johnsongrass (johnsongrass; [5]): 0
- Plant response rating, Johnsongrass (johnsongrass; [6]): 25
- Johnsongrass plant response rating (johnsongrass; [7]): 10
- Johnsongrass plant response rating (johnsongrass; [8]): 50
- Plant response rating, Johnsongrass (johnsongrass; [9]): 75
- Plant response rating (scale of 0 to 100), Johnsongrass (johnsongrass; Preemergence, 250 g ai/ha): 85
- Plant response rating, Oilseed Rape (oilseed rape; [3]): 5
- Plant response rating, Oilseed Rape (oilseed rape; [4]): 5
- Plant response rating, Oilseed Rape (oilseed rape; [5]): 35
- Plant response rating, Oilseed Rape (oilseed rape; [6]): 45
- Oilseed Rape plant response rating (oilseed rape; [7]): 0
- Oilseed Rape plant response rating (oilseed rape; [8]): 50
- Plant response rating, Oilseed Rape (oilseed rape; [9]): 90
- Plant response rating (scale of 0 to 100), Oilseed Rape (oilseed rape; Preemergence, 250 g ai/ha): 90
- Plant response rating, Crabgrass, Large (crabgrass, large; [3]): 15
- Plant response rating, Crabgrass, Large (crabgrass, large; [4]): 40
- Plant response rating, Crabgrass, Large (crabgrass, large; [5]): 65
- Plant response rating, Crabgrass, Large (crabgrass, large; [6]): 85
- Crabgrass, Large plant response rating (crabgrass, large; [7]): 90
- Crabgrass, Large plant response rating (crabgrass, large; [8]): 95
- Plant response rating, Crabgrass, Large (crabgrass, large; [9]): 100
- Plant response rating (scale of 0 to 100), Crabgrass, Large (crabgrass, large; Preemergence, 250 g ai/ha): 100
- Plant response rating, Wheat (wheat (winter wheat); [10]): 0
- Plant response rating, Wheat (wheat (winter wheat); [11]): 0
- Plant response rating, Wheat (wheat (winter wheat); [12]): 0
- Plant response rating, Wheat (wheat (winter wheat); [13]): 0
- Wheat plant response rating (wheat (winter wheat); [14]): 5
- Wheat plant response rating (wheat (winter wheat); [15]): 45
- Plant response rating (scale of 0 to 100), Wheat (wheat (winter wheat); 250 g ai/ha): 90

Compound: O=C1NCC(c2cc(F)cc(F)c2)C1C(=O)Nc1ccc(F)cc1F (racemic) [Compound 278]
- Plant response rating, Sedge, Umbrella (sedge, umbrella): 0
- Plant response rating, Barnyardgrass (barnyardgrass): 60
- Plant response rating, Wheat (wheat; [1]): 0
- Plant response rating, Wheat (wheat; [2]): 0
- Plant response rating, Blackgrass (blackgrass; [3]): 0
- Plant response rating, Blackgrass (blackgrass; [4]): 0
- Plant response rating, Blackgrass (blackgrass; [5]): 0
- Plant response rating, Blackgrass (blackgrass; [6]): 0
- Blackgrass plant response rating (blackgrass; [7]): 0
- Blackgrass plant response rating (blackgrass; [8]): 0
- Plant response rating, Blackgrass (blackgrass; [9]): 0
- Plant response rating (scale of 0 to 100), Blackgrass (blackgrass; Preemergence, 250 g ai/ha): 0
- Plant response rating, Velvetleaf (velvetleaf; [3]): 0
- Plant response rating, Velvetleaf (velvetleaf; [4]): 0
- Plant response rating, Velvetleaf (velvetleaf; [5]): 10
- Plant response rating, Velvetleaf (velvetleaf; [6]): 20
- Velvetleaf plant response rating (velvetleaf; [7]): 0
- Velvetleaf plant response rating (velvetleaf; [8]): 0
- Plant response rating, Velvetleaf (velvetleaf; [9]): 0
- Plant response rating (scale of 0 to 100), Velvetleaf (velvetleaf; Preemergence, 250 g ai/ha): 0
- Plant response rating, Ragweed (ragweed; [3]): 0
- Plant response rating, Ragweed (ragweed; [4]): 0
- Plant response rating, Ragweed (ragweed; [5]): 10
- Plant response rating, Ragweed (ragweed; [6]): 0
- Ragweed plant response rating (ragweed; [7]): 0
- Ragweed plant response rating (ragweed; [8]): 0
- Plant response rating, Ragweed (ragweed; [9]): 0
- Plant response rating (scale of 0 to 100), Ragweed (ragweed; Preemergence, 250 g ai/ha): 0
- Plant response rating, Pigweed (pigweed; [3]): 0
- Plant response rating, Pigweed (pigweed; [4]): 5
- Plant response rating, Pigweed (pigweed; [5]): 15
- Plant response rating, Pigweed (pigweed; [6]): 15
- Pigweed plant response rating (pigweed; [7]): 5
- Pigweed plant response rating (pigweed; [8]): 0
- Plant response rating, Pigweed (pigweed; [9]): 0
- Plant response rating (scale of 0 to 100), Pigweed (pigweed; Preemergence, 250 g ai/ha): 0
- Plant response rating, Rice (rice): 0
- Plant response rating, Johnsongrass (johnsongrass; [3]): 0
- Plant response rating, Johnsongrass (johnsongrass; [4]): 0
- Plant response rating, Johnsongrass (johnsongrass; [5]): 0
- Plant response rating, Johnsongrass (johnsongrass; [6]): 0
- Johnsongrass plant response rating (johnsongrass; [7]): 0
- Johnsongrass plant response rating (johnsongrass; [8]): 0
- Plant response rating, Johnsongrass (johnsongrass; [9]): 0
- Plant response rating (scale of 0 to 100), Johnsongrass (johnsongrass; Preemergence, 250 g ai/ha): 0
- Plant response rating, Oilseed Rape (oilseed rape; [3]): 0
- Plant response rating, Oilseed Rape (oilseed rape; [4]): 0
- Plant response rating, Oilseed Rape (oilseed rape; [5]): 5
- Plant response rating, Oilseed Rape (oilseed rape; [6]): 0
- Oilseed Rape plant response rating (oilseed rape; [7]): 0
- Oilseed Rape plant response rating (oilseed rape; [8]): 0
- Plant response rating, Oilseed Rape (oilseed rape; [9]): 0
- Plant response rating (scale of 0 to 100), Oilseed Rape (oilseed rape; Preemergence, 250 g ai/ha): 5
- Plant response rating, Crabgrass, Large (crabgrass, large; [3]): 0
- Plant response rating, Crabgrass, Large (crabgrass, large; [4]): 30
- Plant response rating, Crabgrass, Large (crabgrass, large; [5]): 65
- Plant response rating, Crabgrass, Large (crabgrass, large; [6]): 75
- Crabgrass, Large plant response rating (crabgrass, large; [7]): 90
- Crabgrass, Large plant response rating (crabgrass, large; [8]): 95
- Plant response rating, Crabgrass, Large (crabgrass, large; [9]): 98
- Plant response rating (scale of 0 to 100), Crabgrass, Large (crabgrass, large; Preemergence, 250 g ai/ha): 100
- Plant response rating, Wheat (wheat (winter wheat); [10]): 0
- Plant response rating, Wheat (wheat (winter wheat); [11]): 0
- Plant response rating, Wheat (wheat (winter wheat); [12]): 0
- Plant response rating, Wheat (wheat (winter wheat); [13]): 0
- Wheat plant response rating (wheat (winter wheat); [14]): 0
- Wheat plant response rating (wheat (winter wheat); [15]): 0
- Plant response rating (scale of 0 to 100), Wheat (wheat (winter wheat); 250 g ai/ha): 0
